Columns and labels:
[1] = test system: HIV-1IIIB; test: ultrastructural analysis of HIV-1 virions by electron microscopy; format: cell-based; details: 500 nM
[2] = test system: HIV-1; details: 500 nM, 12 hpi, MOI 70
[3] = test system: HIV-1IIIB; format: cell-based; details: MT-4 cells
[4] = test system: MT-4 cells; details: read-out: mean 50% cytotoxicity concentration, CC50
[5] = test system: HIV-1YU2; test: antiviral efficacy in HIV-1YU2-infected humanized NOG mice; format: in vivo

SMILES: COC(=O)N[C@H](C(=O)N[C@@H](Cc1ccccc1)[C@@H](O)CN(Cc1ccc(-c2ccccn2)cc1)NC(=O)[C@@H](NC(=O)OC)C(C)(C)C)C(C)(C)C [ATV, atazanavir]
- capsid morphology in released virions [1]: predominantly contained immature Gag/Gag-Pol lattices

SMILES: C[C@@H]1CCO[C@H]2Cn3cc(C(=O)NCc4ccc(F)cc4F)c(=O)c(O)c3C(=O)N12 [DTG, dolutegravir]
- effect on capsid and vDNA fluorescent signals [2]: did not alter either fluorescent signal

SMILES: Cc1[nH]c2ccccc2c1CC(=O)N[C@@H](Cc1ccccc1)C(=O)N(C)c1ccccc1 [PF74]
- selectivity index (CC50/EC50 ratio) [3]: 26
- fold weaker antiviral potency than GS-CA1 ([3]; HIV-1IIIB): > 5,000 fold
- EC50 ([3]; read-out: mean EC50, HIV-1IIIB, n = 43): 1.24 µM
- CC50 [4]: 32.2 ± 9.3 µM

SMILES: Cc1cc(/C=C/C#N)cc(C)c1Nc1ccnc(Nc2ccc(C#N)cc2)n1 [RPV, rilpivirine]
- capsid levels [2]: 100 % of control
- vDNA [2]: 14 % of control
- treated animals with rapid emergence of drug resistance ([5]; 160 mg/kg every 2 weeks): 80%
- animals returning to baseline viremia by week 10 ([5]; 160 mg/kg s.c. daily for 7 days then every two weeks): 4/5

— article PMC7396128 (Nature medicine, 2019)
